Measured values from patent publication US12448358B2, “Inhibitors of protein arginine deiminase 1 and methods of preparation and use thereof” (University of Massachusetts, priority 2019, dated 2025).
Read-outs that look alike come from different tables or passages of the source.

Columns and labels:
Type in all cases: biochemical
[1] = molecular target: T1, PAD2 (Homo sapiens, UniProt Q9Y2J8); experiment: Inactivation kinetics of PAD2 (COLDER citrulline assay); settings: for Fold PAD selectivity: bracketed value under kinact/KI; for kinact/KI: marks: * nonlinear fit of kobs versus [I], ‡ linear fit, † single kobs
T1 construct: made in house
T1 sequence (Q9Y2J8 whole entry): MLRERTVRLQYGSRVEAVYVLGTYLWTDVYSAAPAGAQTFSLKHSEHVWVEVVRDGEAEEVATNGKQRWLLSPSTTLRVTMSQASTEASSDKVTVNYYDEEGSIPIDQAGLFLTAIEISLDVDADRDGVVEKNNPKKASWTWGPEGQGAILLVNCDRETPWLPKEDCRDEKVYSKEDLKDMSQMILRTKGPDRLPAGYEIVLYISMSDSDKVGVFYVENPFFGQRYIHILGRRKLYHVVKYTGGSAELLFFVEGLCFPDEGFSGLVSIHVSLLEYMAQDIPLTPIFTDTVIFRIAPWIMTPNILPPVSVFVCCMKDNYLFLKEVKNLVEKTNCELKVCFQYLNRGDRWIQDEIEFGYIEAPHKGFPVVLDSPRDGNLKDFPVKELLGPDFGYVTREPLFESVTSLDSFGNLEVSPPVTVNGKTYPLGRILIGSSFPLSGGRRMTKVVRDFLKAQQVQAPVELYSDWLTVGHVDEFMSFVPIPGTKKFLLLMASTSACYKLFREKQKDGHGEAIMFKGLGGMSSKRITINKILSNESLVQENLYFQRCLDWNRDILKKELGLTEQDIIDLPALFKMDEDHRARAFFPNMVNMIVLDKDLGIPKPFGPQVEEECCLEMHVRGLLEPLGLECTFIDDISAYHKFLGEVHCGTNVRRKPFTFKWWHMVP
Description: (§1) Inactivation kinetics. […] After 15 min, reactions were quenched with liquid nitrogen and the production of citrulline was quantified using the COLDER assay. (Kearney, et al. Biochemistry 2005, 44, 10570-10582; Knipp, et al. Anal. Biochem. 2000, 286, 257-264.) The time-dependence of PAD inhibition was fit to the following equation 1, […] (1), using Grafit, version 5.0.11, where v is velocity, ν0 is initial velocity, k (or kobs is the pseudo-first-order rate constant of inactivation, and t is time. Upon reaching saturation, the concentration dependence of kobs was fit to equation 2, kobs=kinact[I]/(KI+[I]), (2), using Grafit, version 5.0.11, where kinact is the maximal rate of inactivation, KI is the concentration of inhibitor that affords half-maximal inactivation, and [I] is the concentration of inhibitor. When kobs with [I] varied linearly, kinact/KI was determined from the slope of the line. All the experiments were performed at least in duplicate.

[2] = molecular target: T2, PAD1 (Homo sapiens, UniProt Q9ULC6); experiment: Inactivation kinetics of PAD1 (COLDER citrulline assay); settings: for Ki / kinact/KI / kinact: PAD1; for Ki: concentration of inhibitor that affords half-maximal inactivation; for kinact/KI: marks: * nonlinear fit of kobs versus [I], ‡ linear fit, † single kobs; for Fold PAD selectivity: PAD1 over the other PADs, bracketed value under kinact/KI
T2 construct: made in house
T2 sequence (Q9ULC6 1-663): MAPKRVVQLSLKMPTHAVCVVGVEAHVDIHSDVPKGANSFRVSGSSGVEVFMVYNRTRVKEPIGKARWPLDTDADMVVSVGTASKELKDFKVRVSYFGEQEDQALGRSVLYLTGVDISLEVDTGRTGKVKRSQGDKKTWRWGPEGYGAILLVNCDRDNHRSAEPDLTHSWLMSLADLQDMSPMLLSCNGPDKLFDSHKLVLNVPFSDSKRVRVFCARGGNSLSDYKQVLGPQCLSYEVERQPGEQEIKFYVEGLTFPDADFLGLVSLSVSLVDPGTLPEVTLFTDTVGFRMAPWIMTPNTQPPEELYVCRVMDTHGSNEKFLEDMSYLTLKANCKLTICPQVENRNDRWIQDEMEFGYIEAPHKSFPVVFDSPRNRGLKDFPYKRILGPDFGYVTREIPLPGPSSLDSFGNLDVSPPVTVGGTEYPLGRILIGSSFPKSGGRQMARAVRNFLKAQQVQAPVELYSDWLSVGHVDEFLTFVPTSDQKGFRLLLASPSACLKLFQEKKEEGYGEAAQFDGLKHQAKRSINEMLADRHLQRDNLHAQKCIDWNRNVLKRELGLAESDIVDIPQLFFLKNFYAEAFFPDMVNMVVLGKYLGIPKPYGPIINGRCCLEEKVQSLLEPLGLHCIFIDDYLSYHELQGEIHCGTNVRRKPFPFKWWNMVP
Description: as §1

[3] = molecular target: T3, PAD4 (Homo sapiens, UniProt Q9UM07); experiment: Inactivation kinetics of PAD4 (COLDER citrulline assay); settings: for Fold PAD selectivity: bracketed value under kinact/KI; for kinact/KI: marks: * nonlinear fit of kobs versus [I], ‡ linear fit, † single kobs
T3 construct: made in house
T3 sequence (Q9UM07 whole entry): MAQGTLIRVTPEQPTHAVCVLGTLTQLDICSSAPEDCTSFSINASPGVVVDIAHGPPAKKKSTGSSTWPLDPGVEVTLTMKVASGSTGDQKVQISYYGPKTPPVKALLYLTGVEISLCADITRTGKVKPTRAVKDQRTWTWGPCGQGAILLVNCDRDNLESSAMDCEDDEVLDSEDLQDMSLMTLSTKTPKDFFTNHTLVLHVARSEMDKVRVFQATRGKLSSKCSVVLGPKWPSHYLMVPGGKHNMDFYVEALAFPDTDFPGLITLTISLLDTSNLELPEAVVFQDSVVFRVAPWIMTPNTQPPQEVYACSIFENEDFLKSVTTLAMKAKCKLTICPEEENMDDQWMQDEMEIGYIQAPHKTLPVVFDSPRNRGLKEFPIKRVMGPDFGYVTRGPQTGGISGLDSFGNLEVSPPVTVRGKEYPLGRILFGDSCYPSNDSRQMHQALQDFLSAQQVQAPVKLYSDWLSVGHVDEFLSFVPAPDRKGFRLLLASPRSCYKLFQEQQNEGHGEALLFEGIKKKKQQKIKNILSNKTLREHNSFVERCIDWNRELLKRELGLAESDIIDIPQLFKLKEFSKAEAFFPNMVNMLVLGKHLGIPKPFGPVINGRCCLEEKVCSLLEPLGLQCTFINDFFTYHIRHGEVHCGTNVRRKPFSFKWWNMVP
Description: as §1

[4] = molecular target: T4, PAD3 (Homo sapiens, UniProt Q9ULW8); experiment: Inactivation kinetics of PAD3 (COLDER citrulline assay); settings: for Fold PAD selectivity: bracketed value under kinact/KI; for kinact/KI: marks: * nonlinear fit of kobs versus [I], ‡ linear fit, † single kobs
T4 construct: made in house
T4 sequence (Q9ULW8 1-664): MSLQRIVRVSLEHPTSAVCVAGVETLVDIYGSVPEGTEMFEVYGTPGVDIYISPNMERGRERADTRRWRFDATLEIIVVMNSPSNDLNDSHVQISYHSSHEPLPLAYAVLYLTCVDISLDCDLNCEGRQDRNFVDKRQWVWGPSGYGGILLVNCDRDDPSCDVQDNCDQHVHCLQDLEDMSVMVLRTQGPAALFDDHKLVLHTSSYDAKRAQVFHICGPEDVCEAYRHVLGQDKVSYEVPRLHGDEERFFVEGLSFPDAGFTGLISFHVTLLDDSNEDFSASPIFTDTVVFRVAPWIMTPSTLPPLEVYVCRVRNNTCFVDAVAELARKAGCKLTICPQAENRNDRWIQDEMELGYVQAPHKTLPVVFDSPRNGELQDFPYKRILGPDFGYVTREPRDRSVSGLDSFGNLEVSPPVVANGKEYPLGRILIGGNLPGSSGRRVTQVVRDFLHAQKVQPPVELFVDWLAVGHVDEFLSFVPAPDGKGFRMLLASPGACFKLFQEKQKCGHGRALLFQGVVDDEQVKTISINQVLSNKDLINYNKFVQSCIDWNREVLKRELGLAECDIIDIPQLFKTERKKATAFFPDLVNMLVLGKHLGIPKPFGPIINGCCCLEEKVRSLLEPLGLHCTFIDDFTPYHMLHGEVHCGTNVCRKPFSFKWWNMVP
Description: as §1

[5] = read-out: kinact/KI (converted)

SMILES | Fold PAD selectivity [1] | kinact/KI [1, 5] [M⁻¹ s⁻¹] | Ki [2] [µM] | kinact/KI [2, 5] [M⁻¹ s⁻¹] | kinact ([2]; read-out: kinact (converted)) [s⁻¹] | Fold PAD selectivity [2] [fold] | Fold PAD selectivity [3] | kinact/KI [3, 5] [M⁻¹ s⁻¹] | Fold PAD selectivity [4] | kinact/KI [4, 5] [M⁻¹ s⁻¹] | kinact/KI [1] | kinact [2] [s⁻¹] | kinact/KI [2] | kinact/KI [3] | kinact/KI [4]
N=C(CF)NCCC[C@H](NC(=O)c1cc(I)c(F)c(I)c1O)c1nc2ccccc2[nH]1 [Compound 19] | [1] fold | 5 | 30.2 | 221 | 0.00667 | 44 | [1] fold | 5 | [2] fold | 11.7 | – | – | – | – | –
C#Cc1c(I)cc(C(=O)N[C@@H](CCCNC(=N)CF)c2nc3ccccc3[nH]2)c(O)c1I [Compound 21] | [1] fold | – | 69.2 | – | – | – | [2] fold | – | [2] fold | – | 130 ± 30^† M^−1min^−1 | 0.00517 | 4480 ± 200* M^−1min^−1 | 220 ± 30^† M^−1min^−1 | 310 ± 80^† M^−1min^−1
N=C(CF)NCCC[C@H](NC(=O)c1cc(I)cc(I)c1O)c1nc2ccccc2[nH]1 [Compound 1] | [1] fold | 2.33 | 12.5 | 173 | 0.00217 | 74 | [2] fold | 4.5 | [1] fold | 3.33 | – | – | – | – | –
